Measurements taken from US9271982B2, “Animal feed supplement comprising ractopamine and caffeine” (Rivalea (Australia) Pty Ltd, priority 2012, dated 2016).
Counter-ions that a name gives are not always drawn. Like-named read-outs stand apart in the source and are kept apart here.

Experiments:
[1] = system: female and immunocastrated male pigs; assay: Study 2: carcass (meat) yield in a subset of carcasses followed through the boning room; type: in vivo, pig; details: Study 2 subset of carcasses, n = 12 per treatment
Text: Pigs were slaughtered in a commercial abattoir at the conclusion of the test period. A subset of carcasses (n=12 per treatment) were randomly selected at the abattoir and followed through the boning room for meat yield assessment.
Data were subjected to an analysis of variance (ANOVA) with the main effects being dietary treatment and sex. Replicate (start date within week) was included in, the analyses to account for the blocking factor. The experimental unit for all analyses was the pen of pigs. All analyses were performed using Genstat 8th Edition (Payne et al. 2005).

[2] = system: finisher gilts and Improvac males; type: in vivo, pig; details: for ADFI / FCR / Live weight Day 0 / Live weight Day 14 / Live weight Day 35: RAC 7.5 ppm / caffeine 0.5 kg/t in feed; for Live weight Day 0: day 0 baseline, 16 wk of age; for % pigs P2 >12 mm (carcass weight as covariate): carcass weight included as covariate; for % pigs P2 >12 mm: no covariate
Description: (§1) Pigs were selected to start on trial over three days during week 20 of the test year. […] All diets were formulated to contain 0.62 g available lysine/MJ DE and 13.8 MJ DE/kg.
Data were subjected to an analysis of variance (ANOVA) with the main effects being dietary treatment and sex. Replicate (start date within week) was included in the analyses to account for the blocking factor. The experimental unit for all analyses was the pen of pigs. All analyses were performed using Genstat 8th Edition (Payne R W, Harding S A, Genstat Committee 2005 Genstat release 8 reference manual, USN International: Oxford UK)

[3] = system: female and immunocastrated male pigs; assay: Study 3: RAC+caffeine feeding strategy over summer, growth performance and carcase characteristics; type: in vivo, pig
Description: Data were subjected to an analysis of variance (ANOVA) with the main effects being dietary treatment and sex. Replicate (start date within week) was included in the analyses to account for the blocking factor. The experimental unit for all analyses was the pen of pigs. All analyses were performed using Genstat 8th Edition (Payne et al. 2005).

[4] = system: female and immunocastrated male pigs; details: Study 3, 35 day test period
Description: All animals were selected to start the trial on the one day. Prior to the start of the trial, all pigs were offered a commercial grower diet (no Paylean) and had been in their allocated pens from 10 weeks of age. No remixing of pigs occurred before the start of the test period. […] Oxytetracycline was included in water for two days every fortnight for lawsonia control.
The priming Improvac™ vaccination was administered to the male pigs at 13 weeks of age and the second vaccination at 17 weeks of age (day 0 of the experimental period). Pen weights were recorded at the beginning of the experimental period (day 0, 17 weeks of age) and again at day 14 and day 35 (prior to slaughter). Pen feed Intakes were also recorded over these time periods as measured by feed disappearance and feed conversion efficiency subsequently calculated. All deaths and removals were recorded and taken into account when calculating feed intake and feed efficiency by the adjustment of the number of days that pigs were on trial.

[5] = system: female and immunocastrated male pigs; assay: Study 2: RAC+caffeine strategy on heavier weight finishers, growth performance and carcass characteristics; type: in vivo, pig; details: for ADFI / ADG / FCR: Study 2, RAC 7.5 ppm
Text: Pigs were selected over a two week period. […] A: Control; B: […] The interpretation of results is then a direct measure of the impact of commercial diets without RAC and commercial diets that do contain RAC. […] Pigs were slaughtered in a commercial abattoir at the conclusion of the test period. A subset of carcasses (n=12 per treatment) were randomly selected at the abattoir and followed through the boning room for meat yield assessment. Data were subjected to an analysis of variance (ANOVA) with the main effects being dietary treatment and sex. Replicate (start date within week) was included in, the analyses to account for the blocking factor. The experimental unit for all analyses was the pen of pigs. All analyses were performed using Genstat 8th Edition (Payne et al. 2005).

[6] = system: finisher gilts and Improvac males; assay: Study 1: deaths, removals and animal welfare during the test period; details: for Deaths (dead/total pigs in treatment group) / Deaths, percentage of pigs: Study 1, entire 35 day test period
Text: as §1

finisher pigs = assay: Earlier study evaluating caffeine inclusion rates in finisher diets; type: in vivo, pig; details: for Feed intake: without caffeine 2.62 kg/d
Text: The management of weight and carcass P2 during Autumn is critical in markets that are paid on a grid of both parameters. The rate of fat deposition is at a maximum during the finisher period and is related to the amount of energy consumed by the pig. Excess energy intake above that required for protein deposition during this time is deposited as fat. As such, strategies to reduce feed intake from the excessive highs during autumn are often implemented. Caffeine is one ingredient that can be included in finisher diets to limit excessive feed intake. A study evaluating caffeine inclusion rates was conducted with the results confirming the intake restricting effects of caffeine inclusion. Feed intake was reduced from 2.62 kg/d to 2.45 and 2.33 kg/d with caffeine included in the diet at either 0.5 kg/t or 0.75 kg/t respectively. […] There has however been no evaluation of the effects of caffeine inclusion when the finisher diet also contains Paylean™. As such, the aim of this study was to determine the effects of caffeine inclusion when Paylean™ is also present in the finisher diet.

[7] = Study 1 (autumn), diets fed 35 days
[8] = Study 1 (autumn), diets fed 35 days, slaughter at 21 wk
[9] = caffeine 0.5 kg/t in feed, 0-14 days
[10] = caffeine 0.5 kg/t in feed, 0-28 days
[11] = caffeine 0.5 kg/t in feed, 14-28 days
[12] = Study 2, carcass weight included as covariate

CC(CCc1ccc(O)cc1)NCC(O)c1ccc(O)cc1 (racemic) [RAC, Ractopamine hydrochloride]
Carcass P2 (carcass weight as covariate) [1]: 12.2 mm
Cold carcass weight [1]: 82.6 kg
HSCW [1]: 93.4 kg
Loin depth (carcass weight as covariate) [1]: 58.2 mm
Percentage Yield: Belly [1]: 20.7%
Percentage Yield: Belly Ribs [1]: 11.39%
Percentage Yield: Leg 90% chemical lean [1]: 6.90%
Percentage Yield: Middle 60-65% chemical lean [1]: 2.43%
Percentage Yield: Middle 80-85% chemical lean [1]: 9.72%
Percentage Yield: Middle rind plus fat [1]: 10.58%
Percentage Yield: Middle total fat [1]: 7.36%
Percentage Yield: Retail leg [1]: 35.80%
Percentage Yield: Tenderloin [1]: 3.65%
Percentage Yield: Topside cap off rind less [1]: 7.79%
ADFI ([2]; Study 1 (autumn), 0-14 days): 2.72 kg/day
FCR ([2]; Study 1 (autumn), 0-14 days): 2.34 kg/kg
ADFI ([2]; Study 1 (autumn), 0-35 days): 2.96 kg/day
FCR ([2]; Study 1 (autumn), 0-35 days): 2.67 kg/kg
ADFI ([2]; Study 1 (autumn), 14-35 days): 3.13 kg/day
FCR ([2]; Study 1 (autumn), 14-35 days): 2.92 kg/kg
Live weight Day 0 ([2]; Study 1 (autumn)): 61.2 kg
Live weight Day 14 ([2]; Study 1 (autumn)): 77.6 kg
Live weight Day 35 ([2]; Study 1 (autumn)): 100.1 kg
Dressing % [2, 7]: 77.6%
Carcass P2 (carcass weight as covariate) [2, 8]: 10.9 mm
Carcass weight [2, 8]: 77.6
% pigs P2 >12 mm (carcass weight as covariate) [2, 7]: 26.4%
% pigs P2 >12 mm [2, 7]: 29.0%
Live weight Day 14 ([3]; Study 3 (summer), RAC 7.5 ppm, caffeine 0.5 kg/t in feed, day 14): 79.4 kg
Live weight Day 35 ([3]; Study 3 (summer), RAC 7.5 ppm, caffeine 0.5 kg/t in feed, day 35): 100.5 kg
Average daily feed intake ([3]; Study 3 (summer), Day 0-14): 2.36 kg/day
Average daily gain ([3]; Study 3 (summer), Day 0-14): 1.132 kg/day
Feed conversion ratio ([3]; Study 3 (summer), Day 0-14): 2.15 kg/kg
Average daily feed intake ([3]; Study 3 (summer), Day 0-35): 2.62 kg/day
Average daily gain ([3]; Study 3 (summer), Day 0-35): 1.056 kg/day
Feed conversion ratio ([3]; Study 3 (summer), Day 0-35): 2.48 kg/kg
Average daily feed intake ([3]; Study 3 (summer), Day 14-35): 2.79 kg/day
Average daily gain ([3]; Study 3 (summer), Day 14-35): 1.004 kg/day
Feed conversion ratio ([3]; Study 3 (summer), Day 14-35): 2.80 kg/kg
Loin muscle depth ([3]; Study 3 (summer), carcase): 58.4 mm
P2 ([3]; Study 3 (summer), carcase, carcase weight not taken into account): 11.3 mm
Live weight Day 0 ([3]; Study 3 (summer, 17-22 wk), RAC 7.5 ppm, caffeine 0.5 kg/t in feed, day 0 baseline): 63.5 kg
Response (feed efficiency, daily gain, carcass composition) in words ([3]; Study 3, RAC at 7.5 ppm over the summer period): negligible
Average feed consumed ([3]; Study 3, entire test period): 2.6 kg feed/day
Feed efficiency, more efficient than the control animals ([3]; Study 3, initial 14 day period, not significant): approximately 4%
Average feed intake ([3]; Study 3, initial 14 days): 2.36 kg/day
Combined deaths and removals (number/total pigs) [4]: 5/228
Combined deaths and removals, percentage [4]: 2.2%
Deaths: APP (number of pigs) [4]: 2
Deaths: Lame (number of pigs) [4]: 2
Removals: Unthrifty (number of pigs) [4]: 1
Dressing % ([5]; Study 2): 77.1%
Live weight Day 0 ([5]; Study 2 (22-26 wk), RAC 7.5 ppm, caffeine 0.5 kg/t in feed, day 0 baseline): 92.1 kg
Live weight Day 14 ([5]; Study 2 (22-26 wk), RAC 7.5 ppm, caffeine 0.5 kg/t in feed, day 14): 106 kg
Live weight Day 28 ([5]; Study 2 (22-26 wk), RAC 7.5 ppm, caffeine 0.5 kg/t in feed, day 28, in kg (unit assumed)): 120.1
ADFI [5, 9]: 2.92 kg/day
ADG [5, 9]: 0.995 kg/day
FCR [5, 9]: 2.98 kg/kg
ADFI [5, 10]: 3.04 kg/day
ADG [5, 10]: 1.002 kg/day
FCR [5, 10]: 3.11 kg/kg
ADFI [5, 11]: 3.15 kg/day
ADG [5, 11]: 1.008 kg/day
FCR [5, 11]: 3.28 kg/kg
Carcass P2 (carcass weight as covariate) [5, 12]: 11.9 mm
Loin depth (carcass weight as covariate) [5, 12]: 58.3 mm
Carcass P2 ([5]; Study 2, no covariate): 12.0 mm
Carcass weight ([5]; Study 2, slaughter at 26 wk): 92.9 kg
Off trial: Lame (number of pigs) ([6]; Study 1, 0-14 days): 1
Off trial: Meningitis (number of pigs) ([6]; Study 1, 0-14 days): 1
Off trial: Wound (number of pigs) ([6]; Study 1, 0-14 days): 1
TOTAL deaths and removals (number of pigs) ([6]; Study 1, 0-14 days): 3
Deaths: Hernia (number of pigs) ([6]; Study 1, 14-35 days): 1
Deaths: Ileitis (number of pigs) ([6]; Study 1, 14-35 days): 1
Off trial: Lame (number of pigs) ([6]; Study 1, 14-35 days): 1
TOTAL deaths and removals (number of pigs) ([6]; Study 1, 14-35 days): 3
Deaths (dead/total pigs in treatment group) [6]: 2/298
Deaths, percentage of pigs [6]: 0.67%

Cn1c(=O)c2c(ncn2C)n(C)c1=O [Caffeine]
ADFI ([2]; Study 1 (autumn), 0-14 days): 2.44 kg/day
FCR ([2]; Study 1 (autumn), 0-14 days): 2.64 kg/kg
ADFI ([2]; Study 1 (autumn), 0-35 days): 2.70 kg/day
FCR ([2]; Study 1 (autumn), 0-35 days): 2.78 kg/kg
ADFI ([2]; Study 1 (autumn), 14-35 days): 2.88 kg/day
FCR ([2]; Study 1 (autumn), 14-35 days): 2.89 kg/kg
Live weight Day 0 ([2]; Study 1 (autumn)): 61.3 kg
Live weight Day 14 ([2]; Study 1 (autumn)): 74.2 kg
Live weight Day 35 ([2]; Study 1 (autumn)): 95.3 kg
Dressing % [2, 7]: 77.9%
Carcass P2 (carcass weight as covariate) [2, 8]: 10.4 mm
Carcass weight [2, 8]: 74.1
% pigs P2 >12 mm (carcass weight as covariate) [2, 7]: 22.3%
% pigs P2 >12 mm [2, 7]: 19.5%
Carcass weight ([2]; Study 1, statistical comparison between diets): reduced carcass weight compared to either of the RAC treatment groups
Reduction of growth rate (finisher pigs; caffeine 0.5 kg/t in diet): 95 g/day
Feed intake (finisher pigs; caffeine 0.5 kg/t in diet): 2.45 kg/day
Reduction of growth rate (finisher pigs; caffeine 0.75 kg/t in diet): 163 g/day
Feed intake (finisher pigs; caffeine 0.75 kg/t in diet): 2.33 kg/day
Off trial: Meningitis (number of pigs) ([6]; Large White×Landrace, pig, in vivo): 1
TOTAL deaths and removals (number of pigs) ([6]; Study 1, 0-14 days): 0
Deaths: Ileitis (number of pigs) ([6]; Study 1, 14-35 days): 1
Deaths: SD (number of pigs) ([6]; Study 1, 14-35 days): 1
TOTAL deaths and removals (number of pigs) ([6]; Study 1, 14-35 days): 4
Deaths (dead/total pigs in treatment group) [6]: 2/307
Deaths, percentage of pigs [6]: 0.65%
Off trial: Lame (number of pigs) ([6]; both, Large White×Landrace, pig, in vivo): 1
